Data published in US9751869B2, “LXR modulators” (BRISTOL-MYERS SQUIBB COMPANY, priority 2013, dated 2017).

Target: T1, LXRβ (Homo sapiens, UniProt P55055)
T1 construct: Co-transfection expression plasmids, comprising full-length LXRα (pCMX-h LXRα or LXRβ (pCMX-hLXRβ)); expressed in transfected cells; host or cells: CV-1 African green monkey kidney cells, transient transfection with pCMX-hLXRβ
T1 sequence (P55055 1-460): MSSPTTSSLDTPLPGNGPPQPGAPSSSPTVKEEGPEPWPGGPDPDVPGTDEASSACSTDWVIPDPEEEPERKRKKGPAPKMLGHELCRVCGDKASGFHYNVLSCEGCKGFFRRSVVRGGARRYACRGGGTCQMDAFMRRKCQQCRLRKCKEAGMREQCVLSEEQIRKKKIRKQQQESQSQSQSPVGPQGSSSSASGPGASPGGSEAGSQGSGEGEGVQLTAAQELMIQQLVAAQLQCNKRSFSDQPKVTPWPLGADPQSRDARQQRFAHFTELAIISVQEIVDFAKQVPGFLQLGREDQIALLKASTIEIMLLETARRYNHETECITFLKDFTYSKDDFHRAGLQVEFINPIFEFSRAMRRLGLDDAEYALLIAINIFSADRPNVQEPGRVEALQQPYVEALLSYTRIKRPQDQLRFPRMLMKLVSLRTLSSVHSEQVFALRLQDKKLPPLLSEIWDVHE
T1 sequence (P19793 1-462 partner): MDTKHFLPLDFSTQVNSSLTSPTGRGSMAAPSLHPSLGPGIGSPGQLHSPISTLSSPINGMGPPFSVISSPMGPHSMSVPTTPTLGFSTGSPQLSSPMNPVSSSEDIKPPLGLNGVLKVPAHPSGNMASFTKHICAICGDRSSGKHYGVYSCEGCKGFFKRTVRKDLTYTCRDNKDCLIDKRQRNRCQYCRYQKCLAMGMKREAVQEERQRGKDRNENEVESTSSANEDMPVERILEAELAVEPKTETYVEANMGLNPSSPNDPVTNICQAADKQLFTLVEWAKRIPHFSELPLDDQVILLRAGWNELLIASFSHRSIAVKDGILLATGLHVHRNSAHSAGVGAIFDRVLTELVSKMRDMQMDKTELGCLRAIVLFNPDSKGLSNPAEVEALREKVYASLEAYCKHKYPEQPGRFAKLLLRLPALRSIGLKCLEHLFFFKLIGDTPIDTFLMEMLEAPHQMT
Experiment: LXR/LXRE co-transfection assay (luciferase reporter) in CV-1 cells, LXRβ
Format: cell-based
Settings: for EC50: CV-1 cells transfected with pCMX-hLXRβ and LXREx1-Tk-Luciferase, 20 hours incubation, read-out: LXRbeta agonism EC50; for Emax: CV-1 cells, relative to maximum response of high control N-(3-((4-fluorophenyl)-(naphthalene-2-sulfonyl)amino)propyl)-2,2-dimethylpropionamide, read-out: LXRbeta % EFFICACY
Method in brief: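 Luciferase read-out after 20 h compound treatment at 37 °C of CV-1 cells carrying transfected hLXRβ plus one-copy LXRE reporter, endogenous RXR partnering. Sigmoidal fit of 10-point half-log curves (4 wells each) gave EC50; % efficacy versus maximal response of the propionamide reference agonist.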

SMILES	EC50	Emax
Cc1nc(-c2ccc3c(c2)OC(F)(F)O3)c(-c2cc(-c3cc(F)c(CO)c(S(C)(=O)=O)c3)ccc2-c2cc(CC(C)(C)O)nn2C)o1 [Example 120, 1-(5-(3-(4-(2,2-difluorobenzo[d][1,3]dioxol-5-yl)-2-methyloxazol-5-yl)-3′-fluoro-4′-(hydroxymethyl)-5′-(methylsulfonyl)-[1,1′-biphenyl]-4-yl)-1-methyl-1H-pyrazol-3-yl)-2-methylpropan-2-ol]	46 nM	32%
Cc1nc(-c2ccc(OC(F)(F)F)cc2)c(-c2cc(-c3cccc(C(C)(C)C(N)=O)c3)ccc2-n2ccc(COC(N)=O)n2)o1 [Example 376, (1-(3′-(1-amino-2-methyl-1-oxopropan-2-yl)-3-(2-methyl-4-(4-(trifluoromethoxy)phenyl)oxazol-5-yl)-[1,1′-biphenyl]-4-yl)-1H-pyrazol-3-yl)methyl carbamate]	1300 nM	53%
Cc1nc(-c2ccc(OC(F)(F)F)cc2)c(-c2cc(-c3cccc(C(C)(C)C(N)=O)c3)ccc2-n2cc(Cl)c(C(F)(F)F)n2)o1 [Example 430, 2-(4′-(4-chloro-3-(trifluoromethyl)-1H-pyrazol-1-yl)-3′-(2-methyl-4-(4-(trifluoromethoxy)phenyl)oxazol-5-yl)-[1,1′-biphenyl]-3-yl)-2-methylpropanamide]	41 nM	80%
Cc1nc(-c2cc(-c3cccc(S(C)(=O)=O)c3)ccc2-n2cc(Cl)c(C(F)(F)F)n2)c(-c2ccc(OC(F)(F)F)cc2)o1 [Example 310, 4-(4-(4-chloro-3-(trifluoromethyl)-1H-pyrazol-1-yl)-3′-(methylsulfonyl)-[1,1′-biphenyl]-3-yl)-2-methyl-5-(4-(trifluoromethoxy)phenyl)oxazole]	27 nM	75%
Cc1nc(-c2cc(-c3cccc(S(C)(=O)=O)c3)ccc2-n2nc(C(F)(F)F)cc2C2CC2)c(-c2ccc(OC(F)(F)F)cc2)o1 [Example 312, 4-(4-(5-cyclopropyl-3-(trifluoromethyl)-1H-pyrazol-1-yl)-3′-(methylsulfonyl)biphenyl-3-yl)-2-methyl-5-(4-(trifluoromethoxy)phenyl)oxazole]	798 nM	34%
Cc1nc(-c2ccc(OC(F)(F)F)cc2)c(-c2cc(-c3cccc(S(C)(=O)=O)c3)ccc2-n2nc(C(F)(F)F)cc2Cl)o1 [Example 345, 5-(4-(5-chloro-3-(trifluoromethyl)-1H-pyrazol-1-yl)-3′-(methylsulfonyl)biphenyl-3-yl)-2-methyl-4-(4-(trifluoromethoxy)phenyl)oxazole]	73 nM	75%
Cc1nc(-c2ccc3c(c2)OC(F)(F)O3)c(-c2cc(-c3cccc(S(C)(=O)=O)c3)ccc2-n2nc(C(F)(F)F)cc2Cl)o1 [Example 346, 5-(4-(5-chloro-3-(trifluoromethyl)-1H-pyrazol-1-yl)-3′-(methylsulfonyl)biphenyl-3-yl)-4-(2,2-difluorobenzo[d][1,3]dioxol-5-yl)-2-methyloxazole]	37 nM	90%
Cc1nc(-c2ccc3c(c2)OC(F)(F)O3)c(-c2cc(-c3cc(F)c(CO)c(S(C)(=O)=O)c3)ccc2-c2cc(C(F)(F)C(=O)N3CCOCC3)nn2C)o1 [Example 81, 2-(5-(3-(4-(2,2-difluorobenzo[d][1,3]dioxol-5-yl)-2-methyloxazol-5-yl)-3′-fluoro-4′-(hydroxymethyl)-5′-(methylsulfonyl)biphenyl-4-yl)-1-methyl-1H-pyrazol-3-yl)-2,2-difluoro-1-morpholinoethanone]	184 nM	43%
Cc1nc(-c2ccc(OC(F)(F)F)cc2)c(-c2cc(-c3cc(F)c(CO)c(S(C)(=O)=O)c3)ccc2-n2ccc(C(=O)NCC(F)(F)F)n2)o1 [Example 372]	123 nM	38%
Cc1cc(C(C)(F)F)nn1-c1ccc(-c2cccc(S(C)(=O)=O)c2)cc1-n1nncc1-c1ccc(OC(F)(F)F)cc1 [Example 304, 1-{4-[3-(1,1-difluoroethyl)-5-methyl-1H-pyrazol-1-yl]-3′-(methylsulfonyl)biphenyl-3-yl}-5-{4-[(trifluoromethyl)oxy]phenyl}-1H-1,2,3-triazole]	2860 nM	26%
CNC(=O)C(F)(F)c1cc(-c2ccc(-c3cc(F)cc(S(C)(=O)=O)c3)cc2-c2oc(C)nc2-c2ccc3c(c2)OC(F)(F)O3)n(C)n1 [Example 85, 2-(5-(3-(4-(2,2-difluorobenzo[d][1,3]dioxol-5-yl)-2-methyloxazol-5-yl)-3′-fluoro-5′-(methylsulfonyl)biphenyl-4-yl)-1-methyl-1H-pyrazol-3-yl)-2,2-difluoro-N-methylacetamide]	588 nM	55%
Cc1nc(-c2ccc3c(c2)OC(F)(F)O3)c(-c2cc(-c3cc(F)c(CO)c(S(C)(=O)=O)c3)ccc2-c2cc([C@H](C)C#N)nn2C)o1 [Example 59, (S)-2-(5-(3-(4-(2,2-difluorobenzo[d][1,3]dioxol-5-yl)-2-methyloxazol-5-yl)-3′-fluoro-4′-(hydroxymethyl)-5′-(methylsulfonyl)-[1,1′-biphenyl]-4-yl)-1-methyl-1H-pyrazol-3-yl)propanenitrile]	6 nM	76%
Cc1nc(-c2ccc3c(c2)OC(F)(F)O3)c(-c2cc(-c3cccc(S(C)(=O)=O)c3)ccc2-n2cc(Cl)c(C(F)(F)F)n2)o1 [Example 419, 5-(4-(4-chloro-3-(trifluoromethyl)-1H-pyrazol-1-yl)-3′-(methylsulfonyl)-[1,1′-biphenyl]-3-yl)-4-(2,2-difluorobenzo[d][1,3]dioxol-5-yl)-2-methyloxazole]	4 nM	71%
Cc1nc(-c2ccc(OC(F)(F)F)cc2)c(-c2cc(-c3cccc(S(C)(=O)=O)c3)ccc2-n2ccc(C(=O)NCC(F)(F)F)n2)o1 [Example 371, 1-(3-(2-methyl-4-(4-(trifluoromethoxy)phenyl)oxazol-5-yl)-3′-(methylsulfonyl)-[1,1′-biphenyl]-4-yl)-N-(2,2,2-trifluoroethyl)-1H-pyrazole-3-carboxamide]	119 nM	33%
Cc1nc(-c2ccc(OC(F)F)cc2Cl)c(-c2cc(-c3cc(F)c(CO)c(S(C)(=O)=O)c3)ccc2-n2cc(Cl)c(C(F)(F)F)n2)o1 [Example 432, (4′-(4-chloro-3-(trifluoromethyl)-1H-pyrazol-1-yl)-3′-(4-(2-chloro-4-(difluoromethoxy)phenyl)-2-methyloxazol-5-yl)-3-fluoro-5-(methylsulfonyl)-[1,1′-biphenyl]-4-yl)methanol]	19 nM	79%
Cc1nc(-c2ccc3c(c2)OC(F)(F)O3)c(-c2cc(-c3cc(F)c(CO)c(S(C)(=O)=O)c3)ccc2-c2cc(C(F)(F)CO)nn2C)o1 [Example 105, 2-(5-(3-(4-(2,2-difluorobenzo[d][1,3]dioxol-5-yl)-2-methyloxazol-5-yl)-3′-fluoro-4′-(hydroxymethyl)-5′-(methylsulfonyl)-[1,1′-biphenyl]-4-yl)-1-methyl-1H-pyrazol-3-yl)-2,2-difluoroethanol]	74 nM	66%
Cn1nc(C(F)(F)F)cc1-c1ccc(-c2cccc(C(C)(C)C(N)=O)c2)cc1-n1nncc1-c1ccc(OC(F)(F)F)cc1 [Example 12]	74 nM	81%
